Structures can show the parent of a compound that is named as a salt.

One data set concerns esterase. Briefly: Regeneration (hydrolysis) of MKH-ester derivatives to MKH in S9 fractions. Type of data set: in vitro ADME. To be noted: human, pH 7.4, 37 °C, Michaelis-Menten fit, 95% confidence interval in square brackets. Here is the method: To assess the regeneration to the parental form, MKH, from the MKH-ester derivatives by an esterase of HCC, MKH-ACT, MKH-DMG and MKH-SUC were incubated at 37 °C in S9 fractions obtained from PLC/PRF/5 or SK-Hep-1 cells. The velocities of MK-4 generated in the S9 fractions were plotted as the amount of MKH, because MKH is rapidly oxidized to MK-4 during drug extraction and measurement. The regeneration versus […] profile was fitted by the Michaelis--Menten model (shown in Figure 4) and the kinetic parameters were calculated (Table 2). The regeneration velocities of MKH-ACT in both PLC/PRF/5 and SK-Hep-1 cells reached a plateau at about 3 μM MKH-ACT. MKH-DMG reached a plateau in PLC/PRF/5 and SK-Hep-1 cells at 25 μM and about 6 μM MKH-DMG, respectively. MKH-SUC reached a plateau in PLC/PRF/5 and SK-Hep-1 cells at about 0.6 μM and about 1.5 μM MKH-SUC, respectively. The level scale of MKH regeneration from MKH-SUC was about 100-fold higher than those of MKH-ACT and MKH-DMG.
The hydrolysis of the esters was performed at 37 °C in S9 fractions of PLC/PRF/5 and SK-Hep-1 cells after ultrasonic homogenization and centrifugation (10,000× g, 1 h) in isotonic phosphate buffer (pH 7.4). Stock solutions of each ester were made in the same manner as the cell viability assay, and the solutions were diluted with 0.1% w/v albumin in PBS. The enzymatic reactions were initiated by adding 5 μL of the diluted of each ester into amber test tubes containing 95 μL of preheated S9 fractions. A BCA protein assay (PIERCE/Thermo Fisher Scientific Inc., Waltham, MA, USA) was used to determine protein concentrations, and the final S9 concentration was adjusted to 1.0 mg of protein/mL in PBS. The solutions were incubated at 37 °C, and at appropriate times, the aliquots from the reaction were combined with an equal volume of methanol and three times volume of n-hexane. The samples were vortexed for 2 min and centrifuged at 1750× g for 10 min. The upper layer (n-hexane) was collected and evaporated under nitrogen. The residue was reconstituted with 100 μL of methanol, sonicated for 10 s and subjected to LC-MS/MS analysis as described below.
The LC-MS/MS analysis was performed with the same instrument under the same conditions as in an earlier report, except for the following MS/MS-multiple reaction monitoring (MRM) setting and retention times: MRM: m/z 532→171, [M + H]^+ MKH-ACT adduct; m/z 664→187, [M + NH4]^+ MKH-SUC adduct; retention times: MKH-ACT, 1.7 min; and MKH-SUC, 1.1 min.
For the determination of Km and Vmax for the uptake and enzymatic activation of MKH-esters, concentration-dependency data were fit to the Michaelis--Menten equation:V = Vmax·[S]/(Km + [S])(1) where V represents the velocity of action between the substrate and transportation/enzymatic reaction, [S] refers to the concentration of the substrate and Km is defined as the concentration of substrate at the half-maximal rate of action (Vmax). Data were analyzed by GraphPad Prism (GraphPad Software).

A further data set has as its system SK-Hep-1 cells. Nature of the data set: Cell viability assay (Cell Titer-Glo). Type of data set: cell-based. To be noted: for IC50 lower than that of MK-4: 96 h of treatment; for IC50: Homo sapiens, 95% confidence interval in square brackets. Here is the method: (§1) To assess the effects of MKH-ester prodrugs on HCC cell proliferation, DCP-positive (PLC/PRF/5) and DCP-negative (SK-Hep-1) HCC cell lines were treated with various concentrations of MKH-ACT, MKH-DMG, MKH-SUC or MK-4 up to 96 h, and cell viability was determined.
(§2) Cell viability was determined using a previously reported method. Briefly, PLC/PRF/5 and SK-Hep-1 cells were plated at 5.0 × 10^3 cells/well in 96-well plates and allowed to attach for 48 h. MK-4 and MKH-ACT were dissolved in 99.5% ethanol. MKH-SUC was dissolved in DMSO. MKH-DMG was dissolved in sterilized water. Stock solutions of each drug (50 mM) were diluted to the intended final concentrations with medium. Cells were exposed to MK-4, MKH-ACT, MKH-DMG or MKH-SUC for up to 96 h, and cell viability was evaluated using the Cell Titer-Glo Luminescent Cell Viability Assay (Promega, Madison, WI, USA) according to the manufacturer’s instructions. IC50 values were determined by a log [drug] vs. normalized response-variable slope analysis of GraphPad Prism, version 6.0 (GraphPad Software, San Diego, CA, USA).

In another data set the test system is PLC/PRF/5 cells. Briefly: Cell viability assay (Cell Titer-Glo). Type of data set: cell-based. The following applies: for IC50: Homo sapiens, 95% confidence interval in square brackets; for IC50 lower than that of MK-4: 96 h of treatment. Here is the method:
as §1, §2

In data set [1] the test system is cyclin D1 and CDK4 in PLC/PRF/5 cells. Nature of the data set: Western blotting of cell cycle regulatory proteins. To be noted: 24 h after treatment. Type of data set: cell-based. Here is the method: We previously reported that MKH-DMG regulates cell cycle-related proteins as a mechanism of MKH-DMG-induced growth inhibition in PLC/PRF/5, Hep3B and SK-Hep-1 cells. Thus, to clarify the mechanisms of the growth inhibition induced by the MKH-ester prodrugs, we analyzed cell cycle-related proteins using Western blotting (Figure 7).
HCC cells were plated at 1.5 × 10^5 cells/well in 6-well plates and allowed to attach for 48 h. Cells were treated with MK-4, MKH-ACT, MKH-DMG or MKH-SUC for 24 h. Western blotting was performed as described previously.
In general terms: Immunoblotting shows a protein as a band on a membrane.

Setting [2] is: S9 fraction of PLC/PRF/5 cells, S9 of PLC/PRF/5 cells.
Where [3] appears, read: S9 fraction of SK-Hep-1 cells, S9 of SK-Hep-1 cells.

Consider `CC(=O)Oc1c(C)c(C/C=C(\C)CC/C=C(\C)CC/C=C(\C)CCC=C(C)C)c(OC(C)=O)c2ccccc12` [MKH-ACT, Menahydroquinone-4 1,4-bis acetate], for which the Km is 1.42 µM with esterase (setting [2]) and 1.32 µM with esterase (setting [3]). Besides, the “IC50 lower than that of MK-4” value with SK-Hep-1 cells was found to be 1.23 fold. The IC50 worked out at 71.6 µM in the data set with SK-Hep-1 cells (SK-HEP1, 72 h); 71.9 µM in the data set on SK-Hep-1 cells (SK-HEP1, 96 h); 152 µM in the data set with PLC/PRF/5 cells (72 h); 114 µM in the data set with PLC/PRF/5 cells (96 h). The “Effect on cyclin D1 and CDK4 expression compared with controls” value (“Effect … compared with controls” for short) in data set [1] is recorded as “did not affect”.

As to `CC(C)=CCC/C(C)=C/CC/C(C)=C/CC/C(C)=C/Cc1c(C)c(OC(=O)CN(C)C)c2ccccc2c1OC(=O)CN(C)C` [MKH-DMG, Menahydroquinone-4 1,4-bis-N,N-dimethylglycinate hydrochloride], the Km with esterase (setting [2]) amounted to 13.6 µM; with esterase (setting [3]), 3.24 µM. The entries for the “IC50 lower than that of MK-4” value with SK-Hep-1 cells and in the data set on PLC/PRF/5 cells were 3.61 fold and 3.17 fold, respectively. Also, the IC50 in the data set with SK-Hep-1 cells (SK-HEP1, 48 h) amounted to 71.3 µM; with SK-Hep-1 cells (SK-HEP1, 72 h) it was 32.5 µM; in the data set on SK-Hep-1 cells (SK-HEP1, 96 h) it was 24.4 µM; with PLC/PRF/5 cells (48 h), 63 µM; with PLC/PRF/5 cells (72 h), 33.4 µM; in the data set with PLC/PRF/5 cells (96 h), 27.4 µM. Also, the “Effect … compared with controls” value in data set [1] is recorded as “clearly suppressed”.

For `CC(C)=CCC/C(C)=C/CC/C(C)=C/CC/C(C)=C/Cc1c(C)c(OC(=O)CCC(=O)O)c2ccccc2c1OC(=O)CCC(=O)O` [MKH-SUC, Menahydroquinone-4 1,4-bis hemisuccinate], the Km was determined as 0.399 µM with esterase (setting [2]) and 0.74 µM in the data set with esterase (setting [3]). The “IC50 lower than that of MK-4” value with SK-Hep-1 cells came out at 12.3 fold; in the data set with PLC/PRF/5 cells it was 4.32 fold. For the same molecule, the IC50 with SK-Hep-1 cells (SK-HEP1, 48 h) stood at 78.1 µM; with SK-Hep-1 cells (SK-HEP1, 72 h), 15.8 µM; with SK-Hep-1 cells (SK-HEP1, 96 h) it was 7.16 µM; in the data set on PLC/PRF/5 cells (48 h) it was 48.9 µM; in the data set on PLC/PRF/5 cells (72 h) it was 26.6 µM; with PLC/PRF/5 cells (96 h), 20.1 µM. The “Effect … compared with controls” value in data set [1] is “clearly suppressed”.

Broadly, the Km is the concentration of substrate that gives half-maximal velocity. Broadly, the IC50 is the concentration needed to halve the response being measured. Higher therefore signals weaker potency in that assay.
